Here are results for 22 compounds from patent publication US12403144B2, “HECT E3 ligase inhibitors and uses thereof” (IFOM FONDAZIONE ISTITUTO FIRC DI ONCOLOGIA MOLECOLARE, priority 2019, dated 2025).

Structures can show the parent of a compound that is named as a salt.

The assay deals with T1, untagged HECT of NEDD4 wild-type (WT) (E3 ligase) (Homo sapiens, UniProt P46934).
T1 construct: untagged HECT of NEDD4 wild-type (WT) (E3 ligase); made in house
T1 sequence (P46934 519-900 isoform P46934-4 limits assumed): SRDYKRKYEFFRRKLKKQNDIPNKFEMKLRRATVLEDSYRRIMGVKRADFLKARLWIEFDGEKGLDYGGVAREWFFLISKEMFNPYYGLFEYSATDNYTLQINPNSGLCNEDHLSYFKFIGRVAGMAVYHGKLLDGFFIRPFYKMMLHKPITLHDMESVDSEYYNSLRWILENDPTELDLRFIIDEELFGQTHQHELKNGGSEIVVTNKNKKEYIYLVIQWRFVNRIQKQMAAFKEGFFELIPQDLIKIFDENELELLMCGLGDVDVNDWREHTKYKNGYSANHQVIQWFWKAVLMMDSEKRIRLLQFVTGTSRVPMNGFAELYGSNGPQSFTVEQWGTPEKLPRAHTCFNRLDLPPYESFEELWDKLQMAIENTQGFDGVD
In words: In vitro ubiquitination assay TR-FRET based (self-ubiquitination of NEDD4). In kind it is biochemical. The settings on record: at 11 μM; pre-incubated for 1 hour; AUC of 120 minutes kinetic; read-out: percentages of inhibition (NEDD4). From the text: FIG. 1: TR-FRET kinetic assay performed with compound 12. […] Reactions were initiated with the addition of ATP. As labeled ubiquitin molecules become incorporated into chains they come into close proximity, resulting in energy transfer and increased signal to background detection. The activity of the enzyme is continuously and real time detected and it is expressed as % of signal/background during the time.
In order to quantitatively measure the self-ubiquitination process of the E3 HECT ligase NEDD4 the inventors employed a TR-FRET based assay. TR-FRET technology exploits the long-lasting emission of lanthanide fluorescence to interpose a short time-delay between FRET donor excitation and emission. This phenomenon enables to isolate real fluorescent signals from short-lived background emissions, thus reducing possible interference from compounds.
In the present study, elongation of the ubiqutin chain by NEDD4 is measured by adding bacterially expressed E1, His-tagged UBE2D3 (E2) and untagged HECT of NEDD4 wild-type (WT) (E3 ligase) (named in FIG. 1 as WT) enzymes to a mixture of Eu-cryptate ubiquitin, Cy5-ubiquitin and wild-type ubiquitin, combined in a ratio optimized for TR-FRET based conjugation (100×TRF-Ubiquitin Mix, SBB-TR0051). […] Bacterially expressed E1, His-tagged UBE2D3 (E2), untagged HECT NEDD4 (E3 ligase) WT and NEDD4 C/A enzymes were produced and purified as reported in E. Maspero et al. Methods Mol Biol. 1449:153-60 (2016).
Enzymatic incorporation of the labeled TRF-Ubiquitin mix into chains leads to an increase in fluorescence emission at 665 nm (emission of the acceptor Cy5-Ubiquitin, Emacceptor) and decrease at emission wavelength 620 nm (emission of the donor Eu-cryptate Ubiquitin, Emdonor).
The assay was performed in a 384-well plate format (Optiplate, Perkin Elmer, #6007290) on an automated liquid-handler (Hamilton STAR, Hamilton Robotics, Switzerland).
All compounds were dissolved in 100% DMSO and serially diluted in 96-well plates (from 100 μM to 0.005 μM).
Briefly, all reagents were thawed and kept on ice. A master mix containing E1, E2, E3 and TRF-Ubiquitin Mix (SBB-TR0051) diluted in the assay buffer (Tris-HCl pH 7.6 25 mM, NaCl 100 mM, MgCl2 5 mM and Tween 0.01%) is prepared and 50 μl/well is dispensed in a 384 well plate. 3 μl of compounds dissolved in DMSO in the above-indicated concentration range were added and pre-incubated for 1 hour. Final E1, E2 and E3 concentrations in the assay buffer (Tris-HCl pH 7.6 25 mM, NaCl 100 mM, MgCl2 5 mM and Tween 0.01%) were 30, 350 and 50 nanomolars, respectively. The reaction was initiated with the addition of ATP (22 μl of 2 mM ATP, JenaBioscience, NU-1010) and was allowed to proceed for 120 minutes, measuring fluorescence emission at 665 nm and 620 nm in real-time on an EnSpire microplate reader (Perkin Elmer).
Kinetic raw data were analyzed by Area Under the Curve (AUC) method using Prism GraphPad software.
% signal/background corresponds to the following equation: (Experimental signal−Background signal)/Background signal×100%
Experimental signal corresponds to the signal obtained by the enzymatic reaction in presence of the vehicle (DMSO) and/or the different compound concentrations. Background signal corresponds to the signal obtained by the enzymatic reaction in absence of ATP.
The relative potency of the compounds was evaluated by dose-response curves following the enzymatic reaction of HECT NEDD4 WT in real time for 120 minutes.
Percentage of inhibition is then determined by the equation: % inhibition=100×[1−(X)/(MAX)],
where MAX correspond to AUC of the vehicle (DMSO) treated enzyme, and X corresponds to the AUC of the compound treated enzyme.
Background: In TR-FRET formats the signal depends on donor and acceptor labels being close together.
For the compound `CCOC(=O)/C=C/CNCCCN1c2ccccc2COc2ccc(Cl)cc21` [Compound 2, Ethyl (E)-4-[3-(7-chlorodibenzo[b,e][1,4]oxazepin-5(11H)-yl)propylamino]but-2-enoate maleate], the inhibition (in general, the percentage by which the read-out fell short of the control) at 11 µM is above 50%.

Turning to `CCOC(=O)/C=C/CNCCCCN1c2ccccc2C(=O)N(CCO)c2ccc(Cl)cc21` [Compound 50, Ethyl (E)-4-({4-[7-chloro-10-(2-hydroxyethyl)-11-oxo-10,11-dihydro-5H-dibenzo[b,e][1,4]diazepin-5-yl]butyl}amino)but-2-enoate maleate], the inhibition at 11 µM was above 50%.

Regarding `CCOC(=O)/C=C/CNCCCCN1c2ccccc2NC(=O)c2ccc(Cl)cc21` [Compound 24, Ethyl (E)-4-{[4-(3-chloro-11-oxo-10,11-dihydro-5H-dibenzo[b,e][1,4]diazepin-5-yl)butyl]amino}but-2-enoate maleate], the inhibition at 11 µM was above 50%.

Turning to `C#CCOCCOc1ccc2c(c1)CCc1ccc(Cl)cc1N2CCCCN(C)C/C=C/C(=O)OC` [Compound 89, Methyl (E)-4-{4-[7-chloro-2-(2-prop-2-ynoxyethoxy)-10,11-dihydro-5H-dibenzo[b,f]azepin-5-yl]-butyl-methyl-amino}-but-2-enoate maleate], the inhibition at 11 µM was above 50%.

In the case of `CCOC(=O)/C=C/CNCCCCN1c2cc(Cl)ccc2CCc2cnn(C)c21` [Compound 43, Ethyl (E)-4-{[4-(8-chloro-1-methyl-4,5-dihydropyrazolo-[3,4-b][1]-benzazepin-10(1H)-yl)butyl]amino}but-2-enoate maleate], the inhibition at 11 µM is above 50%.

As to `CCOC(=O)/C=C/CNCCCN1c2ccccc2NC(=O)c2ccc(Cl)cc21` [Compound 23, Ethyl (E)-4-{[3-(3-chloro-11-oxo-10,11-dihydro-5H-dibenzo[b,e][1,4]diazepin-5-yl)propyl]amino}but-2-enoate maleate], the inhibition at 11 µM was in the range of 30 to 50%.

With `CC(=O)/C=C/CN(C)CCCN1c2ccccc2CCc2ccc(Cl)cc21` [Compound 7, (E)-5-[3-(3-chloro-10,11-dihydro-5H-dibenzo[b,f]azepin-5-yl)propyl-methyl-amino]pent-3-en-2-one maleate], the inhibition at 11 µM was above 50%.

Take `CCOC(=O)/C=C/CNCCCCN1c2ccccc2CCc2cc(O)c(Cl)cc21` [Compound 40, Ethyl (E)-4-[4-(3-Chloro-2-hydroxy-10,11-dihydro-dibenzo[b,f]azepin-5-yl)-butylamino]-but-2-enoate maleate]: the inhibition at 11 µM is above 50%.

`CCOC(=O)/C=C/CNCCCN1c2cc(Cl)ccc2COc2ccccc21` [Compound 35, Ethyl (E)-4-{3-[3-chlorodibenzo[b,e][1,4]oxazepin-5(11H)-yl]propylamino}but-2-enoate maleate]: the inhibition at 11 µM is above 50%.

For `CCOC(=O)/C=C/CNCCCC(=O)N1c2ccccc2CCc2ccc(Cl)cc21` [Compound 38, Ethyl (E)-4-{[4-(3-chloro-10,11-dihydro-5H-dibenzo[b,f]azepin-5-yl)-4-oxo-butyl]amino}but-2-enoate maleate], the inhibition at 11 µM was above 50%.

As for `O=C(/C=C/CNCCCN1c2ccccc2CCc2ccc(Cl)cc21)Nc1ccccc1` [Compound 21, (E)-4-{[3-(3-chloro-10,11-dihydro-5H-dibenzo[b,f]azepin-5-yl)propyl]amino}-N-phenyl-but-2-enamide hydrochloride], the inhibition at 11 µM is below 30%.

As for `CCOC(=O)/C=C/CNCCCN1c2cc(Cl)ccc2CCc2cnn(C)c21` [Compound 30, Ethyl (E)-4-{[3-(8-chloro-1-methyl-4,5-dihydropyrazolo-[3,4-b][1]-benzazepin-10(1H)-yl)propyl]amino}but-2-enoate maleate], the inhibition at 11 µM is above 50%.

`O=C(/C=C/CNCCCCN1c2ccccc2CCc2ccc(Cl)cc21)NOCc1ccccc1` [Compound 79, (E)-4-[4-(3-chloro-10,11-dihydro-5H-dibenzo[b,f]azepin-5-yl)butylamino]-N-benzyloxy-but-2-enamide maleate]: the inhibition at 11 µM is above 50%.

On to `CCOC(=O)/C=C/CNCCCN1c2ccccc2CCc2ccc(Cl)cc21` [Compound 4, Ethyl (E)-4-[3-(3-chloro-10,11-dihydro-5H-dibenzo[b,f]azepin-5-yl)propylamino]but-2-enoate fumarate], for which the inhibition at 11 µM is above 50%.

Turning to `CCOC(=O)/C=C/CNCCCN1c2ccccc2CCc2ccc([N+](=O)[O-])cc21` [Compound 14, Ethyl (E)-4-[3-(3-nitro-10,11-dihydro-5H-dibenzo[b,f]azepin-5-yl)propylamino]but-2-enoate maleate], the inhibition at 11 µM was above 50%.

Take `CCOC(=O)/C=C/CNCCCCN1c2ccc(OCc3ccccc3)cc2CCc2ccc(Cl)cc21` [Compound 101, Ethyl (E)-4-[4-(2-benzyloxy-7-chloro-10,11-dihydro-dibenzo[b,f]azepin-5-yl)-butylamino]-but-2-enoate maleate]: the inhibition at 11 µM was below 30%.

Take `CCOC(=O)/C=C/CNCCCN1c2cc(Cl)ccc2C(=O)N(CCO)c2ccccc21` [Compound 47, Ethyl (E)-4-({3-[3-chloro-10-(2-hydroxyethyl)-11-oxo-10,11-dihydro-5H-dibenzo[b,e][1,4]diazepin-5-yl]propyl}amino)but-2-enoate maleate]: the inhibition at 11 µM is above 50%.

In the case of `CCOC(=O)/C=C/CNCCCN1c2ccccc2COc2ccc(C(F)(F)F)cc21` [Compound 3, Ethyl (E)-4-{3-[7-(trifluoromethyl)dibenzo[b,e][1,4]oxazepin-5(11H)-yl]propylamino}but-2-enoate maleate], the inhibition at 11 µM was in the range of 30 to 50%.

Consider `CCOC(=O)/C=C/CN(C)CCCCN1c2ccccc2CCc2ccc(Cl)cc21` [Compound 63, Ethyl (E)-4-{[4-(3-chloro-10,11-dihydro-5H-dibenzo[b,f]azepin-5-yl)butyl]-methyl-amino}but-2-enoate maleate], for which the inhibition at 11 µM was above 50%.

Take `CC(=O)/C=C/CN(C)CCCCN1c2cc(Cl)ccc2C(=O)N(Cc2ccccc2)c2ccccc21` [Compound 60, 10-Benzyl-3-chloro-5-(4-{methyl[(E)-4-oxo-pent-2-en-1-yl]amino}butyl)-5,10-dihydro-11H-dibenzo[b,e][1,4]diazepin-11-one maleate]: the inhibition at 11 µM is above 50%.

For `CCOC(=O)/C=C/CNCCCCN1c2ccccc2C(=O)N(CCc2ccccc2)c2ccc(Cl)cc21` [Compound 44, Ethyl (E)-4-{[4-(7-chloro-10-(2-phenylethyl)-11-oxo-10,11-dihydro-5H-dibenzo[b,e][1,4]diazepin-5-yl)butyl]amino}but-2-enoate maleate], the inhibition at 11 µM is above 50%.

Consider `CN(C/C=C/C(=O)CCc1ccccc1)CCCCN1c2ccccc2CCc2ccc(Cl)cc21` [Compound 53, (E)-6-[4-(3-chloro-10,11-dihydro-5H-dibenzo[b,f]azepin-5-yl)butyl-methyl-amino]-1-phenyl-hex-4-en-3-one maleate], for which the inhibition at 11 µM was above 50%.
